This assay deals with type 4 phosphodiesterases. The assay can be described thus: Inhibition of type 4 phosphodiesterase enzymatic activity (cytosolic preparation from U937 cells). Type of assay: biochemical. As to conditions: PDE4 from cytosolic preparation of human cell line U937; inhibitor concentration range 0.1 to 100 µM. On the procedure: The capacity of the compounds of formula (I) of the invention to inhibit cyclic nucleotide phosphodiesterases is evaluated by measuring their IC50 (concentration needed to inhibit 50% of the enzymatic activity). In the case of PDE4 enzymes, this value is compared to the IC50 value for rolipram, a reference inhibitor for PDE4 enzymes.
The type 4 phosphodiesterases are obtained from a cytosolic preparation extracted from a cell line of human origin, U937, according to the method adapted from T. J. Torphy et al., 1992, J. Pharm. Exp. Ther. 263: 1195-1205.
The measurement of the enzymatic activity for the various types of PDE, and in particular the PDE4 enzymes, is carried out according to a method adapted from W. J. Thomson et al. 1979, Advances in Cyclic Nucleotide Research, Vol. 10: 69-92, ed. G. Brooker et al. Raven Press, NY.
For the determination of the IC50 value, the enzymatic activity is measured in the presence of the inhibitor in a concentration range from 0.1 to 100 µM.
The term IC50 denotes the concentration at which inhibition is half-maximal. Read a low IC50 as greater potency. With `COc1cc2c3c(n1)C(c1ccccc1)=NC(NC(=O)c1cccnc1)C(=O)N3CC2` (stereo not drawn) [second enantiomer (Rt = 8.15 min) of compound of Example 1, N-(4-Methoxy-9-oxo-6-phenyl-1,2,8,9-tetrahydro-5,7,9a-triaza-benzo[cd]azulen-8-yl)-nicotinamide], the IC50 was 73 µM.
For `COc1cc2c3c(n1)C(c1ccccc1)=NC(NC(=O)c1cccnc1)C(=O)N3CC2` (stereo not drawn) [first enantiomer (Rt=5.79 min) of compound of Example 1, N-(4-Methoxy-9-oxo-6-phenyl-1,2,8,9-tetrahydro-5,7,9a-triaza-benzo[cd]azulen-8-yl)-nicotinamide], the IC50 stood at 4.3 µM.
Take `COc1cc2c3c(n1)C(c1ccccc1)=NC(NC(=O)c1cccnc1)C(=O)N3CC2` (racemic) [racemate of compound of Example 1, N-(4-Methoxy-9-oxo-6-phenyl-1,2,8,9-tetrahydro-5,7,9a-triaza-benzo[cd]azulen-8-yl)-nicotinamide]: the IC50 amounted to 6.1 µM.

Values taken from EP1526135A1, “Azabenzodiazepines as pde4 inhibitors” (Warner-Lambert Company LLC, priority 2003, dated 2005).
